Experimental findings from patent US9334264B2, “NAMPT inhibitors” (AbbVie Inc., priority 2012, dated 2016) are described below.

For assay [1], the target named is NAMPT (human, recombinant, C-terminally His-tagged) (Homo sapiens, UniProt P43490). In words: Time-Resolved Fluorescence Resonance Energy Transfer (TR-FRET) Binding Assay of NAMPT. The note with it: absence of substrates; 6.8 nM NAMPT, 200 nM probe, equilibrated 3 hours. Here is the method: Determination of the utility of compounds having Formula (I) as binders to and inhibitors of NAMPT was performed using Time-Resolved Fluorescence Resonance Energy Transfer (TR-FRET) binding assays.
Sequence of NAMPT (human, recombinant, C-terminally His-tagged) (P43490 whole entry): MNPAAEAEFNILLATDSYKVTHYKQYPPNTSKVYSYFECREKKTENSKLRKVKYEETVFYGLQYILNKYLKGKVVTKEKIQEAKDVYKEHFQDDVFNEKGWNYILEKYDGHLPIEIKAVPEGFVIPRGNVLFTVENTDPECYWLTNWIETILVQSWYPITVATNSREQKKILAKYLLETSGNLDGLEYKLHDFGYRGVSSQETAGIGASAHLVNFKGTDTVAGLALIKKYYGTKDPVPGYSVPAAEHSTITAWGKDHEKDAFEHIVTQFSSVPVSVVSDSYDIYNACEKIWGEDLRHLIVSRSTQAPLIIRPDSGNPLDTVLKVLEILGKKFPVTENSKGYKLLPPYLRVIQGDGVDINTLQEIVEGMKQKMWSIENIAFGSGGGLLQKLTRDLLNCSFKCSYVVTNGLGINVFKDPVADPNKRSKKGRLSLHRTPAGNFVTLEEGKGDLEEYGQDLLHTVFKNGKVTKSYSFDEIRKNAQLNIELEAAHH
Time-Resolved Fluorescence Resonance Energy Transfer (TR-FRET) Binding Assay of NAMPT
Test compounds were serially diluted (typically 11 half log dilutions) in neat DMSO to 50× final concentrations prior to dilution with assay buffer (50 mM HEPES (NaOH), pH 7.5, 100 mM NaCl, 10 mM MgCl2, 1 mM DTT, 1% Glycerol) to 3× and 6% DMSO. Six μL were transferred to 384-well low-volume plates (Owens Corning #3673). To this, 12 μL of a 1.5× solution containing enzyme, probe and antibody were added. Final concentrations in the 18 μL reactions were 1× assay buffer, 2% DMSO, 6.8 nM NAMPT (human, recombinant, C-terminally His-tagged), 200 nM probe (a potent nicotinamide-competitive inhibitor conjugated to Oregon Green 488) and 1 nM Tb-anti-His antibody (Invitrogen #PV5895). Reactions were equilibrated at room temperature for 3 hours prior to reading on an Envision multi-label plate reader (Perkin Elmer; Ex=337 nm, Em=520 and 495 nm). Time-resolved FRET ratios (Em520/Em495) were normalized to controls, plotted as a function of compound concentration and fit with the four-parameter logistic equation to determine IC50s.
Background: In TR-FRET formats the signal depends on donor and acceptor labels being close together.

For the next assay, the target named is NAMPT (Homo sapiens, UniProt P43490). Briefly: Time-Resolved Fluorescence Resonance Energy Transfer (TR-FRET) Binding Assay of NAMPT with PRPP. The note with it: 200 μM PRPP and 2.5 mM ATP; 2 nM NAMPT, 2 nM probe, equilibrated 16 hours. Here is the method: Time-Resolved Fluorescence Resonance Energy Transfer (TR-FRET) Binding Assay of NAMPT with PRPP
Sequence of NAMPT (P43490 whole entry): as above
Compound handling and data processing were identical to the assay in the absence of substrates (above). Final concentrations were 1× assay buffer, 2% DMSO, 2 nM NAMPT, 2 nM probe, 1 nM Tb-anti-His antibody (Invitrogen #PV5895), 200 μM PRPP and 2.5 mM ATP. Reactions were equilibrated for 16 hours prior to measurement to allow for potential enzymatic modification of test compounds.

One may read the pIC50 as −log10 of the IC50, conventionally taken in molar units.

Structures are written as SMILES. pIC50: −log10 of the molar value.

On to `CC(C)OCCCNC(=O)N(Cc1ccc(C#N)cc1)c1ncc(C(=O)NCCCn2ccnc2)s1` [Example 126, 2-[(4-cyanobenzyl){[3-(propan-2-yloxy)propyl]carbamoyl}amino]-N-[3-(1H-imidazol-1-yl)propyl]-1,3-thiazole-5-carboxamide], for which the pIC50 in assay [1] was 5.38; on NAMPT it was 8.89.
In the same order, the values of `O=C(NCCCn1ccnc1)c1cnc(N(Cc2ccc(F)cc2)C(=O)NC2CCOC2)s1` (stereo not drawn) [Example 91, 2-[(4-fluorobenzyl)(tetrahydrofuran-3-ylcarbamoyl)amino]-N-[3-(1H-imidazol-1-yl)propyl]-1,3-thiazole-5-carboxamide] are 5.06 and 9.27.
In the same order, the values of `COCCN(C(=O)Cc1ccc(N)cc1)c1ncc(C(=O)NCCCn2ccnc2)s1` [Example 188, 2-{[(4-aminophenyl)acetyl](2-methoxyethyl)amino}-N-[3-(1H-imidazol-1-yl)propyl]-1,3-thiazole-5-carboxamide] are 6.45 and 9.71.
Consider `CCN1CC(CN(C(=O)CCOC)c2ncc(C(=O)NCCCn3ccnc3)s2)CC1=O` (stereo not drawn) [Example 193, 2-{[(1-ethyl-5-oxopyrrolidin-3-yl)methyl](3-methoxypropanoyl)amino}-N-[3-(1H-imidazol-1-yl)propyl]-1,3-thiazole-5-carboxamide], for which the results for the negative logarithm of the IC50 (pIC50) (in assay [1]; at NAMPT) were 5.22 and 9.12, respectively.
In the same order, the values of `CC(=O)NCCNC(=O)N(Cc1ccc(C#N)cc1)c1ncc(C(=O)NCCCn2ccnc2)s1` [Example 145, 2-[{[2-(acetylamino)ethyl]carbamoyl}(4-cyanobenzyl)amino]-N-[3-(1H-imidazol-1-yl)propyl]-1,3-thiazole-5-carboxamide] are below 5.00 and 6.97.
The matching figures for `CC(C)CC(=O)N(CCc1ccc(C#N)cc1)c1ncc(C(=O)NCCCn2ccnc2)s1` [Example 48, 2-{[2-(4-cyanophenyl)ethyl](3-methylbutanoyl)amino}-N-[3-(1H-imidazol-1-yl)propyl]-1,3-thiazole-5-carboxamide]: 6.09 and 9.15.
In the same order, the values of `COCCN(C(=O)CCc1ccc(F)cc1)c1ncc(C(=O)NCCCn2ccnc2)s1` [Example 182, 2-{[3-(4-fluorophenyl)propanoyl](2-methoxyethyl)amino}-N-[3-(1H-imidazol-1-yl)propyl]-1,3-thiazole-5-carboxamide] are 5.59 and 9.58.
In the case of `COCCC(=O)N(Cc1ccc(C)nc1)c1ncc(C(=O)NCCCn2ccnc2)s1` [Example 113, N-[3-(1H-imidazol-1-yl)propyl]-2-{(3-methoxypropanoyl)[(6-methylpyridin-3-yl)methyl]amino}-1,3-thiazole-5-carboxamide], the pIC50 in assay [1] is 5.30; at NAMPT, 8.17.
The matching figures for `CC(C)CCN(C(=O)CC1CCCO1)c1ncc(C(=O)NCCCn2ccnc2)s1` (stereo not drawn) [Example 173, N-[3-(1H-imidazol-1-yl)propyl]-2-[(3-methylbutyl)(tetrahydrofuran-2-ylacetyl)amino]-1,3-thiazole-5-carboxamide]: 6.15 and 8.63.
The matching figures for `O=C(NCCCn1ccnc1)c1cnc(N(Cc2ccc(F)cc2)C(=O)NCC2CCCO2)s1` (stereo not drawn) [Example 79, 2-{(4-fluorobenzyl)[(tetrahydrofuran-2-ylmethyl)carbamoyl]amino}-N-[3-(1H-imidazol-1-yl)propyl]-1,3-thiazole-5-carboxamide]: 5.18 and 8.56.
As to `O=C(NCCCn1ccnc1)c1cnc(N(Cc2ccc(F)cc2)C(=O)c2ccc(F)cc2)s1` [Example 13, 2-[(4-fluorobenzoyl)(4-fluorobenzyl)amino]-N-[3-(1H-imidazol-1-yl)propyl]-1,3-thiazole-5-carboxamide], the pIC50 in assay [1] was 5.76; on NAMPT, 9.39.
For the compound `CC(C)N1CCN(CC(=O)N(Cc2ccc(F)cc2)c2ncc(C(=O)NCCCn3ccnc3)s2)CC1` [Example 31, 2-[(4-fluorobenzyl){[4-(propan-2-yl)piperazin-1-yl]acetyl}amino]-N-[3-(1H-imidazol-1-yl)propyl]-1,3-thiazole-5-carboxamide], the pIC50 in assay [1] was 5.44; on NAMPT, 9.05.
In the same order, the values of `CC(C)(CO)CNC(=O)N(Cc1ccc(C#N)cc1)c1ncc(C(=O)NCCCn2ccnc2)s1` [Example 127, 2-{(4-cyanobenzyl)[(3-hydroxy-2,2-dimethylpropyl)carbamoyl]amino}-N-[3-(1H-imidazol-1-yl)propyl]-1,3-thiazole-5-carboxamide] are 5.50 and 9.27.
In the same order, the values of `CC(C)CCN(C(=O)CC1CCOCC1)c1ncc(C(=O)NCCCn2ccnc2)s1` [Example 154, N-[3-(1H-imidazol-1-yl)propyl]-2-[(3-methylbutyl)(tetrahydro-2H-pyran-4-ylacetyl)amino]-1,3-thiazole-5-carboxamide] are 6.64 and 9.29.
The matching figures for `CC(CO)NC(=O)N(Cc1ccc(C#N)cc1)c1ncc(C(=O)NCCCn2ccnc2)s1` (stereo not drawn) [Example 129, 2-{(4-cyanobenzyl)[(1-hydroxypropan-2-yl)carbamoyl]amino}-N-[3-(1H-imidazol-1-yl)propyl]-1,3-thiazole-5-carboxamide]: below 5.00 and 8.94.
`CCOC(=O)CC(C)NC(=O)N(Cc1ccc(C#N)cc1)c1ncc(C(=O)NCCCn2ccnc2)s1` (stereo not drawn) [Example 161, ethyl 3-{[(4-cyanobenzyl)(5-{[3-(1H-imidazol-1-yl)propyl]carbamoyl}-1,3-thiazol-2-yl)carbamoyl]amino}butanoate]: the figures for the pIC50 (in assay [1]; at NAMPT) were below 5.00 and 6.67, respectively.
The matching figures for `COCCC(=O)N(CCc1ccccn1)c1ncc(C(=O)NCCCn2ccnc2)s1` [Example 101, N-[3-(1H-imidazol-1-yl)propyl]-2-{(3-methoxypropanoyl)[2-(pyridin-2-yl)ethyl]amino}-1,3-thiazole-5-carboxamide acetate (1:1)]: 5.25 and 8.55.
In the same order, the values of `O=C(NCCCn1ccnc1)c1cnc(N(CCCN2CCCCC2)Cc2ccc(F)cc2)s1` [Example 8, 2-{(4-fluorobenzyl)[3-(piperidin-1-yl)propyl]amino}-N-[3-(1H-imidazol-1-yl)propyl]-1,3-thiazole-5-carboxamide] are 5.50 and 6.54.
In the same order, the values of `O=C(NCCCn1ccnc1)c1cnc(N(Cc2ccc(F)cc2)C(=O)CC2CCOCC2)s1` [Example 4, 2-[(4-fluorobenzyl)(tetrahydro-2H-pyran-4-ylacetyl)amino]-N-[3-(1H-imidazol-1-yl)propyl]-1,3-thiazole-5-carboxamide] are 5.91 and 9.26.
Regarding `O=C(NCCCn1ccnc1)c1cnc(N(Cc2ccc(F)cc2)C(=O)CC2CCCCC2)s1` [Example 5, 2-[(cyclohexylacetyl)(4-fluorobenzyl)amino]-N-[3-(1H-imidazol-1-yl)propyl]-1,3-thiazole-5-carboxamide], the negative logarithm of the IC50 (pIC50) in assay [1] is 6.14; at NAMPT, 9.34.
The matching figures for `O=C(NCCCn1ccnc1)c1cnc(N(Cc2ccc(F)cc2)C(=O)CN2CCC(O)CC2)s1` [Example 29, 2-{(4-fluorobenzyl)[(4-hydroxypiperidin-1-yl)acetyl]amino}-N-[3-(1H-imidazol-1-yl)propyl]-1,3-thiazole-5-carboxamide]: below 5.00 and 8.67.
